Source: PubChem BioAssay (NCI)
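The compound was tested at five concentrations on cells cultured in 96-well plates, with a 48-hour exposure period. GI50 = concentration required for 50% inhibition of growth. TGI marks complete inhibition of growth.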

Experiments:
Experiment in all cases: NCI-60 cell line screen, 48 h
[1] = tested on: 786-0 renal
[2] = tested on: A498 renal
[3] = tested on: A549 NSCLC
[4] = tested on: ACHN renal
[5] = tested on: BT-549 breast
[6] = tested on: CAKI-1 renal
[7] = tested on: COLO 205 colon
[8] = tested on: DU-145 prostate
[9] = tested on: EKVX NSCLC
[10] = tested on: HCC-2998 colon
[11] = tested on: HCT-116 colon
[12] = tested on: HCT-15 colon
[13] = tested on: HL-60(TB) leukemia
[14] = tested on: HOP-62 NSCLC
[15] = tested on: HS 578T breast
[16] = tested on: HT29 colon
[17] = tested on: IGROV1 ovarian
[18] = tested on: K-562 leukemia
[19] = tested on: KM12 colon
[20] = tested on: LOX IMVI melanoma
[21] = tested on: M14 melanoma
[22] = tested on: MALME-3M melanoma
[23] = tested on: MCF7 breast
[24] = tested on: MDA-MB-231 breast
[25] = tested on: MDA-MB-435
[26] = tested on: MOLT-4 leukemia
[27] = tested on: NCI-H460 lung
[28] = tested on: NCI-H522 lung
[29] = tested on: NCI/ADR-RES ovarian
[30] = tested on: OVCAR-3 ovarian
[31] = tested on: OVCAR-4 ovarian
[32] = tested on: OVCAR-5 ovarian
[33] = tested on: OVCAR-8 ovarian
[34] = tested on: PC-3 prostate
[35] = tested on: RPMI-8226 leukemia
[36] = tested on: RXF 393 renal
[37] = tested on: SF-268 CNS
[38] = tested on: SF-295 CNS
[39] = tested on: SF-539 CNS
[40] = tested on: SK-MEL-2 melanoma
[41] = tested on: SK-MEL-28 melanoma
[42] = tested on: SK-MEL-5 melanoma
[43] = tested on: SK-OV-3 ovarian
[44] = tested on: SN12C renal
[45] = tested on: SNB-19 CNS
[46] = tested on: SNB-75 CNS
[47] = tested on: SW-620 colon
[48] = tested on: T-47D breast
[49] = tested on: TK-10 renal
[50] = tested on: U251 CNS
[51] = tested on: UACC-62 melanoma
[52] = tested on: UO-31 renal
[53] = tested on: HOP-92 NSCLC
[54] = tested on: NCI-H23 lung
[55] = tested on: SR leukemia

Fc1ccc(-c2ncn(C3CCNCC3)c2-c2ccnc(Oc3cccc(F)c3)n2)cc1 gave a GI50 [1] of over 23.5 µM, a TGI [1] of over 25 µM and a GI50 [2] of over 25 µM. It also gave a TGI [2] of over 25 µM, a GI50 [3] of 24.7 µM and a TGI [3] of over 25 µM. For the same molecule, the GI50 [4] was 8.58 µM, the TGI [4] was over 25 µM and the GI50 [5] was over 24 µM. The TGI [5] was over 25 µM, the GI50 [6] was 17.9 µM and the TGI [6] was over 25 µM. For the same molecule, the GI50 [7] was 5.09 µM, the TGI [7] was 9.67 µM and the GI50 [8] was over 21.3 µM. The TGI [8] was over 25 µM, the GI50 [9] was over 25 µM and the TGI [9] was over 25 µM. For the same molecule, the GI50 [10] was 7.14 µM, the TGI [10] was over 25 µM and the GI50 [11] was 9.3 µM. It also gave a TGI [11] of over 21.4 µM, a GI50 [12] of over 18 µM and a TGI [12] of over 25 µM. It also gave a GI50 [13] of over 16.6 µM, a TGI [13] of over 25 µM and a GI50 [14] of over 21.8 µM. For the same molecule, the TGI [14] was over 25 µM, the GI50 [15] was over 12 µM and the TGI [15] was 24.8 µM. The GI50 [16] was 4.5 µM, the TGI [16] was 8.6 µM and the GI50 [17] was 12.4 µM. For the same molecule, the TGI [17] was over 25 µM, the GI50 [18] was 6.7 µM and the TGI [18] was 16.5 µM. It also gave a GI50 [19] of 13.6 µM, a TGI [19] of over 25 µM and a GI50 [20] of 10.5 µM. It also gave a TGI [20] of over 25 µM, a GI50 [21] of 5.26 µM and a TGI [21] of 10.5 µM. For the same molecule, the GI50 [22] was 6.71 µM, the TGI [22] was 16.8 µM and the GI50 [23] was 7.38 µM. The TGI [23] was over 20.4 µM, the GI50 [24] was 9.99 µM and the TGI [24] was over 25 µM. It also gave a GI50 [25] of 6.57 µM, a TGI [25] of over 19.4 µM and a GI50 [26] of 12.7 µM. It also gave a TGI [26] of over 25 µM, a GI50 [27] of 7.46 µM and a TGI [27] of over 21.8 µM. For the same molecule, the GI50 [28] was over 14.7 µM, the TGI [28] was over 25 µM and the GI50 [29] was over 23.4 µM. For the same molecule, the TGI [29] was over 25 µM, the GI50 [30] was over 20.9 µM and the TGI [30] was over 25 µM. It also gave a GI50 [31] of 16.8 µM, a TGI [31] of over 25 µM and a GI50 [32] of 22.2 µM. It also gave a TGI [32] of over 25 µM, a GI50 [33] of over 25 µM and a TGI [33] of over 25 µM. For the same molecule, the GI50 [34] was 16.5 µM, the TGI [34] was over 25 µM and the GI50 [35] was 24.6 µM. The TGI [35] was over 25 µM, the GI50 [36] was 5.32 µM and the TGI [36] was over 13.3 µM. For the same molecule, the GI50 [37] was over 23.3 µM, the TGI [37] was over 25 µM and the GI50 [38] was 12.4 µM. The TGI [38] was over 25 µM, the GI50 [39] was 10.7 µM and the TGI [39] was over 25 µM. It also gave a GI50 [40] of over 25 µM, a TGI [40] of over 25 µM and a GI50 [41] of 5.46 µM. The TGI [41] was 11.6 µM, the GI50 [42] was 4.04 µM and the TGI [42] was 8.73 µM. The GI50 [43] was over 22.1 µM, the TGI [43] was over 25 µM and the GI50 [44] was 19.1 µM. The TGI [44] was over 25 µM, the GI50 [45] was over 25 µM and the TGI [45] was over 25 µM. The GI50 [46] was 14.8 µM, the TGI [46] was over 25 µM and the GI50 [47] was 5.54 µM. It also gave a TGI [47] of over 14.7 µM, a GI50 [48] of 13.8 µM and a TGI [48] of over 25 µM. It also gave a GI50 [49] of 17.1 µM, a TGI [49] of over 25 µM and a GI50 [50] of 9.74 µM. For the same molecule, the TGI [50] was over 25 µM, the GI50 [51] was 10.5 µM and the TGI [51] was over 18.6 µM. For the same molecule, the GI50 [52] was 6.77 µM and the TGI [52] was over 25 µM.
For O=C(/C=C/c1cccc(Cl)c1)c1ccc(Cl)cc1Cl, the GI50 [1] was 12.9 µM, the TGI [1] was 27.6 µM and the GI50 [2] was 9.71 µM. The TGI [2] was 27.7 µM, the GI50 [3] was 10.4 µM and the TGI [3] was 29.7 µM. For the same molecule, the GI50 [4] was 15.3 µM, the TGI [4] was 38.4 µM and the GI50 [5] was 8.94 µM. The TGI [5] was 20.7 µM, the GI50 [6] was 8.94 µM and the TGI [6] was 18.2 µM. The GI50 [7] was 12.2 µM, the TGI [7] was 40.6 µM and the GI50 [8] was 9.59 µM. For the same molecule, the TGI [8] was 23 µM, the GI50 [9] was 12.8 µM and the TGI [9] was 34.4 µM. It also gave a GI50 [10] of 1.14 µM, a TGI [10] of 2.52 µM and a GI50 [11] of 20.4 µM. For the same molecule, the TGI [11] was over 50 µM, the GI50 [12] was 12.2 µM and the TGI [12] was over 50 µM. For the same molecule, the GI50 [13] was 25.3 µM, the TGI [13] was over 50 µM and the GI50 [14] was 17.4 µM. For the same molecule, the TGI [14] was over 50 µM, the GI50 [53] was 6.17 µM and the TGI [53] was 16.2 µM. The GI50 [15] was 13.2 µM, the TGI [15] was 40.1 µM and the GI50 [17] was 7.56 µM. The TGI [17] was over 50 µM, the GI50 [18] was 2.86 µM and the TGI [18] was over 50 µM. It also gave a GI50 [19] of 9.76 µM, a TGI [19] of 21.6 µM and a GI50 [20] of 1.88 µM. It also gave a TGI [20] of 4.69 µM, a GI50 [21] of 14 µM and a TGI [21] of 31 µM. The GI50 [23] was 3.49 µM, the TGI [23] was over 50 µM and the GI50 [24] was 13 µM. It also gave a TGI [24] of 34.7 µM, a GI50 [25] of 8.31 µM and a TGI [25] of 16.8 µM. For the same molecule, the GI50 [54] was 10.2 µM, the TGI [54] was 19.3 µM and the GI50 [27] was 13.2 µM. The TGI [27] was over 50 µM, the GI50 [28] was 1.85 µM and the TGI [28] was 15.6 µM. For the same molecule, the GI50 [29] was 11.3 µM, the TGI [29] was 21.6 µM and the GI50 [30] was 8.54 µM. For the same molecule, the TGI [30] was 17.3 µM, the GI50 [31] was 13.4 µM and the TGI [31] was 41.5 µM. For the same molecule, the GI50 [32] was 12.2 µM, the TGI [32] was 27.2 µM and the GI50 [33] was 12 µM. For the same molecule, the TGI [33] was 36.9 µM, the GI50 [34] was 15.2 µM and the TGI [34] was over 50 µM. It also gave a GI50 [35] of 1.68 µM, a TGI [35] of over 50 µM and a GI50 [37] of 10.2 µM. It also gave a TGI [37] of 25.1 µM, a GI50 [38] of 10.1 µM and a TGI [38] of 22.4 µM. For the same molecule, the GI50 [39] was 12.6 µM, the TGI [39] was 28 µM and the GI50 [40] was 11.8 µM. It also gave a TGI [40] of 33 µM, a GI50 [41] of 9.69 µM and a TGI [41] of 26.6 µM. The GI50 [42] was 8.78 µM, the TGI [42] was 17.5 µM and the GI50 [43] was 9.91 µM. It also gave a TGI [43] of 21.7 µM, a GI50 [44] of 14.7 µM and a TGI [44] of 32 µM. For the same molecule, the GI50 [45] was 7.42 µM, the TGI [45] was 17.1 µM and the GI50 [46] was 9.5 µM. For the same molecule, the TGI [46] was 30.1 µM, the GI50 [55] was 0.005 µM and the TGI [55] was 4.31 µM. The GI50 [47] was 2.36 µM, the TGI [47] was 38.7 µM and the GI50 [48] was 9.11 µM. It also gave a TGI [48] of 25.9 µM, a GI50 [49] of 8.8 µM and a TGI [49] of 18.8 µM. The GI50 [50] was 8.37 µM, the TGI [50] was 21.1 µM and the GI50 [51] was 11.1 µM. For the same molecule, the TGI [51] was 29 µM, the GI50 [52] was 11.4 µM and the TGI [52] was 25.8 µM.
